Measured values reported in BindingDB's records for patent US20230286970 (Italfarmaco, 2023).

Experiments:
Histone deacetylase 6 = target: T1, Histone deacetylase 6 (Homo sapiens, UniProt Q9UBN7); assay: Enzymatic Activity Assay
T1 sequence (Q9UBN7 whole entry): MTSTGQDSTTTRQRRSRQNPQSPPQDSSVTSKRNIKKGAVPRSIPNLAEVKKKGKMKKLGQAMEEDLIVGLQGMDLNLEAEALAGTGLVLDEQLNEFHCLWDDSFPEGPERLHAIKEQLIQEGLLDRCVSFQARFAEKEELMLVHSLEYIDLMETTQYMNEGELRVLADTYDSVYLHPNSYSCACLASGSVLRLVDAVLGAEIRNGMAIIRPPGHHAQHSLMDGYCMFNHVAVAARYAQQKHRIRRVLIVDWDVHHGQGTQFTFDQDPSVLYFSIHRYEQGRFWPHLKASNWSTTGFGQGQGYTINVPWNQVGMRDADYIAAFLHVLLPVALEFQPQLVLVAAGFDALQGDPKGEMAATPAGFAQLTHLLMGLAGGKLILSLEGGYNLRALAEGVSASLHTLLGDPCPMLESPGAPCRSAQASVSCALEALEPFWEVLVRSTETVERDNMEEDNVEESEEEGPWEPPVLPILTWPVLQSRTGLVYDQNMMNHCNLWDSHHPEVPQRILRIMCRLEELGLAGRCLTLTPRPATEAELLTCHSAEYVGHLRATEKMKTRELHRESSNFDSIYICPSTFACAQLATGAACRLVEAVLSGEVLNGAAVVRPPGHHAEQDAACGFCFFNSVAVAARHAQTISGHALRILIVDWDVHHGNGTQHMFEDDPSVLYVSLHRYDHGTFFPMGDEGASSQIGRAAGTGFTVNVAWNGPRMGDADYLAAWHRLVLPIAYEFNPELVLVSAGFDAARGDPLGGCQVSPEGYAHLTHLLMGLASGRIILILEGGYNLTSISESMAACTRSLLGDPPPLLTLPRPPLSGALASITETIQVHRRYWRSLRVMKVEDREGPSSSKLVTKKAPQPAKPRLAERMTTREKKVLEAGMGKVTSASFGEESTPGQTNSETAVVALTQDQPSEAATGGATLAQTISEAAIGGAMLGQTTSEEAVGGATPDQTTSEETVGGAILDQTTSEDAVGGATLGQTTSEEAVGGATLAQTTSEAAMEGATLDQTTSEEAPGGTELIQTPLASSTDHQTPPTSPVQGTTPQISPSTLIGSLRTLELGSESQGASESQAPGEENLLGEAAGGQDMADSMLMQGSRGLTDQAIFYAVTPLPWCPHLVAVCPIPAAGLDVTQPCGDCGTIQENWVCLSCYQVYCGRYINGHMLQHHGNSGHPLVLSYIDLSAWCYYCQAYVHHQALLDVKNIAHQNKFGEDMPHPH
Description: (§1) After a period of preincubation (incubation times and temperatures vary for different isoforms and are shown in table 1) 25 μL of solution containing the substrate were added. […] Enzymatic activity on recombinant human HDAC6 and HDAC1 was evaluated (Table 2) for each synthesized compound.

Histone deacetylase 1 = Histone deacetylase 1 (Homo sapiens, UniProt Q13547); assay: Enzymatic Activity Assay
Description: as §1

Histone deacetylase 1, sequence (Q13547 whole entry): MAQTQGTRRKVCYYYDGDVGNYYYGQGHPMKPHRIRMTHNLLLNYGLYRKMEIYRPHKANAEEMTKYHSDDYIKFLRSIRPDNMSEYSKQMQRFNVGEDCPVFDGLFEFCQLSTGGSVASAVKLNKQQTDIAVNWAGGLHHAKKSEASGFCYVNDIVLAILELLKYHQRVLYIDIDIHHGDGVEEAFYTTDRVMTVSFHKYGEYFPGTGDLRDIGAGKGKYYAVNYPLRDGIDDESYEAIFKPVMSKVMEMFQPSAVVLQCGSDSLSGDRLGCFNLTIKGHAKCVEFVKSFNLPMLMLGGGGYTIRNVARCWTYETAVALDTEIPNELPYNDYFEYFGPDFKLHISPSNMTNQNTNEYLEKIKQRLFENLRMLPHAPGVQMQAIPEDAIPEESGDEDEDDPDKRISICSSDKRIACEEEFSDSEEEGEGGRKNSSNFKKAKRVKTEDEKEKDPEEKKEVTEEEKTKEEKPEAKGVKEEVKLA

| SMILES | IC50 (Histone deacetylase 6) | IC50 (Histone deacetylase 1) |
| --- | --- | --- |
| O=C1Nc2ccc(-c3nnn(Cc4ccc(-c5nnc(C(F)F)o5)cc4)n3)cc2NC12CCCCC2 [US20230286970, Compound 157] | 70 nM | > 200000 nM |
| NC(=O)c1cccc(-c2nnn(Cc3ccc(-c4nnc(C(F)F)o4)cn3)n2)c1 [US20230286970, Compound 29] | 10 nM | > 200000 nM |
| Nc1ncc(-c2cccc(-c3nnn(Cc4ccc(-c5nnc(C(F)F)o5)cn4)n3)c2)s1 [US20230286970, Compound 38] | 18 nM | > 200000 nM |
| Nc1ncnc2sc(-c3cn(Cc4ccc(-c5nnc(C(F)F)o5)c(F)c4F)nn3)cc12 [US20230286970, Compound 384] | 63 nM | – |
| COc1ncc(NCc2ccc(-n3cc(Cc4ccc(-c5nnc(C(F)F)o5)cc4)nn3)cc2)cc1C(N)=O [US20230286970, Compound 286] | 99 nM | > 200000 nM |
| FC(F)c1nnc(-c2cnc(Cn3nnc(-c4cccs4)n3)nc2)o1 [US20230286970, Compound 187] | 41 nM | > 200000 nM |
| Nc1ncnc2sc(-c3cn(Cc4cc(F)c(-c5nnc(C(F)F)o5)cc4F)nn3)cc12 [US20230286970, Compound 415] | 49 nM | – |
| C[C@H](c1ccc(-c2nnc(C(F)F)o2)cc1)n1cc(-c2ccc(N)nc2)nn1 [US20230286970, Compound 106] | 41 nM | – |
| C[C@@H](c1ccc(-c2nnc(C(F)F)o2)cc1)n1cc(-c2ccc(N)nc2)nn1 [US20230286970, Compound 255] | 377 nM | – |

Results, then the compound that gave them:

| IC50 (Histone deacetylase 6) | IC50 (Histone deacetylase 1) | SMILES |
| --- | --- | --- |
| 515 nM | – | Nc1ccc(-n2cc(Cc3ccc(-c4nnc(C(F)F)o4)cc3)nn2)cn1 [US20230286970, Compound 413] |
| 23 nM | – | Nc1ccc(-c2cn(Cc3ccc(-c4nnc(C(F)F)o4)cc3)nn2)cn1 [US20230286970, Compound 52] |
| 480 nM | > 200000 nM | O=C(O)c1cccc(-c2nnn(Cc3ccc(-c4nnc(C(F)F)o4)cc3)n2)c1 [US20230286970, Compound 260] |
| 20 nM | 163000 nM | NCc1ccc(-c2cn(Cc3c(F)cc(-c4nnc(C(F)F)o4)cc3F)nn2)cc1 [US20230286970, Compound 44] |
| 24 nM | > 200000 nM | O=C1NCc2ccc(-c3nnn(Cc4ccc(-c5nnc(C(F)F)o5)cc4)n3)cc21 [US20230286970, Compound 55] |
| 373 nM | > 200000 nM | O=C(O)c1cccc(-c2cn(Cc3ccc(-c4nnc(C(F)F)o4)cc3)nn2)c1 [US20230286970, Compound 275] |
| 25 nM | > 200000 nM | Oc1ccc(-c2nnn(Cc3ccc(-c4nnc(C(F)F)o4)cc3)n2)cc1 [US20230286970, Compound 56] |
| 25 nM | > 200000 nM | O=C1NCc2ccc(-c3nnn(Cc4c(F)cc(-c5nnc(C(F)F)o5)cc4F)n3)cc21 [US20230286970, Compound 57] |
| 247 nM | – | CN(C)c1ccc2cc(-c3cn(Cc4c(F)cc(-c5nnc(C(F)F)o5)cc4F)nn3)ccc2n1 [US20230286970, Compound 399] |
| 14 nM | > 200000 nM | NCc1ccc(-c2nnn(Cc3c(F)cc(-c4nnc(C(F)F)o4)cc3F)n2)cc1 [US20230286970, Compound 33] |
| 225 nM | > 200000 nM | CCN(Cc1cn(Cc2c(F)cc(-c3nnc(C(F)F)o3)cc2F)nn1)C(=O)Nc1cccnc1OC [US20230286970, Compound 283] |
| 154 nM | > 200000 nM | CN(C)C(=Nc1ccc(-c2cn(Cc3ccc(-c4nnc(C(F)F)o4)cc3)nn2)cc1)N(C)C [US20230286970, Compound 217] |
